Results taken from patent publication US20220265759A1, “COMPOSITION AND METHOD FOR PROMOTING WOUND HEALING” (THE BOARD OF TRUSTEES OF THE UNIVERSITY OF ILLIOIS, priority 2019, published 2022).
Peptide text beside a SMILES is read from it. * marks the point of attachment. Myristoyl = CCCCCCCCCCCCCC(=O)*

Experiments:
CaM-eNOS binding = molecular target: T1, CaM-eNOS binding (Homo sapiens, UniProt P0DP23); experiment: Co-IP of eNOS-CaM binding in endothelial cells; assay type: cell-based; conditions: pretreatment, 5-minute treatment with 500 ng/ml CCL28
T1 construct: endogenous in cells
Excerpt: Co-IP Experiments, cells or mouse wounds were collected after treatment, and lysed in 2% ODG in Tris buffer. The homogenates were further prepared for Co-IP experiments as described in the art (Chen, et al. (2018) Mol. Biol. Cell 29(10):1190-1202; Chen, et al. (2020) FASEB J. 34(4):5838-5850; Chen, et al. (2015) Ann. Rheum. Dis. 74:1898-1906).
It has been reported that calmodulin (CaM) binding to bovine eNOS occurs at residues 493-[…]-512 (SEQ ID NO:2) (Venema, et al. (1996) J. Biol. Chem. 271(11):6435-6440; Venema, et al. (1995) J. Biol. Chem. 270:14705-14711). Therefore, using Co-IP, it was assessed whether Myr-CBD7 affects eNOS-CaM binding.

HEK/eNOS cells = experiment: NO production in HEK/eNOS cells; assay type: cell-based, human; conditions: HEK/eNOS cells with/without co-expression of CCR10-GFP, pretreatment, compared with control peptide
eNOS = experiment: Immunoblot of eNOS phosphorylation in endothelial cells; assay type: cell-based, human; conditions: in presence of peptide
Procedure: Immunoblot and Co-Immunoprecipitation (Co-IP). After serum starvation, inhibitors were added 45 minutes prior to stimulation for indicated times at 37° C., and cells were then collected and lysed for western blot analysis. After probing for p-eNOS (Ser1177), p-p85 (Tyr458), p-Src (Tyr 416), and p-ERK (T202/Y204), the same blots were stripped and re-probed for total proteins mentioned above. For detection of CCL28-induced protein levels of β-catenin and Bcl-2, near-confluent endothelial cells were incubated with 500 ng/ml CCL28 for 24 hours in EGM-2 medium containing 1% FBS.

NO production = NO production in db/db mouse wounds (nitrite measurement); assay type: in vivo, db/db mice; conditions: day 12, nitrite measurement
Procedure: Nitrite Measurement with Griess Reagent. Supernatants from confluent endothelial cells on 10-cm dishes with and without stimulation at 37° C. were analyzed for nitrite level using a Griess Reagent kit according to the manufacturer's instructions. Nitrite levels were normalized to eNOS expression level in the cells, as described in the art (Chen, et al. (2020) FASEB J. 34(4):5838-5850).
Two 8 mm full thickness excisional wounds were made on the dorsal skin of diabetic db/db mice and then 50 μl of 50 μM Myr-CBD7 peptide was topically applied. […] Reduced CCR10-eNOS interaction was also observed in the mouse wounds following treatment with Myr-CBD7 peptide as determined by Co-IP (FIG. 6).

[1] = test system: full thickness excisional wounds on mouse dorsal skin; experiment: Excisional dermal wound healing in WT C57BL/6 mice; assay type: in vivo; conditions: for reduction of wound size: compared to control peptide
Procedure: Mouse Healing Models. All animal procedures were performed in accordance with the Guide for the Care and Use of Laboratory Animals (National Institutes of Health). WT C57BL/6, eNOS^−/− and db/db mice were purchased from Jackson Laboratory (Bar Harbor, Me.). CCR10^−/− mice have been described in the art, see, e.g., Jin, et al. (2011) J. Immunol. 185(10):5723-31. Four 5-mm or two 8-mm full thickness excisional wounds were made on the dorsal skin of mice (male, aged at 9 weeks) using a standard skin biopsy punch under ketamine (100 mg/kg) and xylazine (5 mg/kg) anesthesia. Scrambled myristoylated (Myr−) control or Myr-CBD7 peptides were applied topically to wounds in F-127 gel sold under the tradename PLURONIC® after wounding (Mirza, et al. (2009) Am. J. Pathol. 175:2454-2462). Wound size was determined as previously described (Chen, et al. (2020) FASEB J. 34(4):5838-5850; Zhao, et al. (2016) PLoS ONE. 11:e0146451) and wounds were collected at indicated times for indicated measurements.
Hematoxylin and Eosin (H&E) Staining. H&E staining was performed as described previously (Chignalia, et al. (2015) Am. J. Pathol. 185:1251-1263). Slides with 5 μm tissue sections were baked at 60° C. for 30 minutes and stained with an Autostainer XL (Leica Microsystems, Wetzlar, Germany) using preset protocol. Briefly, slides were deparaffinized in three changes of xylene, rehydrated in 100% and 95% ethanol, […] followed by a brief immersion in High-Def and Bluing to obtain crisp nuclear details. Slides were then incubated in eosin for 2 minutes, dehydrated and mounted with Micromount media (Leica Biosystems). Whole slide images were obtained using Aperio AT2 brightfield scanner (Leica Microsystems, Wetzlar, Germany).
CCL28 (also called mucosa-associated epithelial chemokine) is a CC chemokine that signals via CCR10 as well as CCR3 (Pan, et al. (2000) J. Immunol. 165:2943). CCR10 has been reported to have two functional ligands, CCL27 and CCL28 that are involved in the epithelial immunity (Xiang, et al. (2012) Protein Cell 3:571-580). It was observed that CCL28 and CCR10 levels were highly expressed compared to CCL27 and CCR3 in skin of WT C57BL/6 mice. […] Therefore, it was subsequently investigated whether blockade of CCR10-eNOS interaction with Myr-CBD7 peptide has an effect on wound healing in WT C57BL/6 mice. Four 5 mm diameter full thickness excisional wounds were made on the mouse dorsal skin and 30 μl Myr-CBD7 peptide (50 μM) was topically administrated onto the wounds immediately after creating the punch wound.

CaM-eNOS binding (Co-IP) (CaM-eNOS binding): no effect
SMILES: CCCCCCCCCCCCCC(=O)N[C@@H](CCCCN)C(=O)N[C@H](C(=O)N[C@@H](CO)C(=O)N[C@@H](C)C(=O)N[C@@H](CO)C(=O)N[C@@H](CC(C)C)C(=O)N[C@@H](CCSC)C(=O)O)[C@@H](C)CC [Myr-CBD7, myr-KISASLM] (Myristoyl-KISASLM-OH)
NO production (HEK/eNOS cells): elevated significantly | eNOS phosphorylation (Ser1177) (eNOS): significantly enhanced | NO production in wounds (NO production): significantly elevated | reduction of wound size ([1]; day 5, 30 μl of 50 μM topical): 20% | wound size (FIG. 1) ([1]; day 5 and 7, 30 μl (50 μM) per wound, vs Myr-control construct, P<0.05): reduced wound size significantly | reduction of wound size ([1]; day 7, 30 μl of 50 μM topical): 35% | re-epithelization of the skin wound (H&E stained sections) ([1]; day 7, vs control construct): associated with re-epithelization of the skin wound | wound healing time ([1]; topical administration on dermal wounds): decreased
